Source: publication PMC12501029, “Discovery of a CNS active GSK3 degrader using orthogonally reactive linker screening” (Nature Communications, 2025)

Tests used:
[1] = Cassette PK study with 22, 25 and 26; type: in vivo, female Balb/c mice; settings: i.v. bolus cassette 0.5 mg/kg; for AUC(0-t) / clearance: female, Balb/c, mouse, iv, whole blood; for clearance: read-out: Cl_obs
From the text: Fifteen female mice of the Balb/c strain were obtained from Charles River Laboratories, UK. Animals were maintained under a 12-h light/12-h dark cycle, in Thoren mouse caging containing EC0 aspen bedding (DBM, UK), with 'Sizzlenest' and 'Rodent Rolls' nesting material (DBM). Enrichment materials included aspen chew sticks, cardboard houses, tunnels, swings, and sunflower seeds. All animals had ad libitum access to food (5LF2 Extruded Diet, IPS Ltd, UK) and tap water throughout. Temperature and relative humidity were maintained between 19 °C–24 °C and 45%–65%, respectively. All animals received a minimum of 10 days of acclimatisation prior to the start of the study.
The cassette formulation (22, 25 and 26) was prepared by producing separate stock solutions of each compound dissolved in DMSO (dimethyl sulfoxide) at a concentration of 6 mg/mL. Aliquots of each stock solution were combined in equal parts to produce a stock solution containing 2 mg/mL of each compound. This solution was then diluted with Polyethylene glycol 400 (PEG400), followed by drop-wise addition of sterile water. The final formulation consisted of 5% DMSO, 40% PEG400, and 55% water, and contained 0.1 mg/mL of each compound. For the cassette PK study, three female Balb/c mice were dosed via a bolus intravenous injection at a dose level of 0.5 mg/kg per compound (5 mL/kg). Serial blood samples (10 µL per sample) were collected from the lateral tail vein of each mouse at 5, 15 and 30 min, 1, 2, 4, 6, 8, and 24 h after dose administration. All blood samples were diluted into 90 µL of Milli‑Q ultrapure water and stored at −20 °C prior to bioanalysis. The concentration of 22, 25 and 26 in blood and brain was determined by UPLC-MS/MS.
Blood samples (10 µL) from study mice were diluted 1× with 90 µL of water immediately when the sample was taken. All calibration, quality control, blanks and double blank samples (all 100 µL volume) were mixed (vortexed) with 300 µL of LCMS grade acetonitrile to precipitate proteins.
For study samples, a volume (30 µL) was mixed (vortexed) with a volume (90 µL) of acetonitrile to precipitate proteins. After protein precipitation, all samples were centrifuged to pellet the proteins. Study samples in Micronics tubes were centrifuged using a Beckman Coutler Allegra C-12R Centrifuge for 10 min at 3750 rpm. All other samples in Eppendorf tubes were centrifuged using a Sigma SciQuip 1–14 centrifuge for 10 min (14,800 rpm/16,163 × g). Supernatant from study samples (80 µL) and calibration samples, QCs, blanks, and double blanks (200 µL) were then transferred to HPLC glass vials containing Milli-Q water (40 µL or 100 µL, respectively), ready for LCMS analysis.

GSK3β-HiBiT = target: T1, GSK3β-HiBiT (Homo sapiens, UniProt P49841); assay: Kinetic live cell degradation assay (LgBit transfected GSK3β-HiBiT KI HEK293 cells); type: cell-based
T1 construct: we generated endogenously tagged GSK3β-HiBiT knock-in (KI) HEK293 cells; endogenous in cells; host or cells: GSK3β-HiBiT KI HEK293 cells, transiently transfected with LgBit (Promega)
T1 sequence (P49841 whole entry): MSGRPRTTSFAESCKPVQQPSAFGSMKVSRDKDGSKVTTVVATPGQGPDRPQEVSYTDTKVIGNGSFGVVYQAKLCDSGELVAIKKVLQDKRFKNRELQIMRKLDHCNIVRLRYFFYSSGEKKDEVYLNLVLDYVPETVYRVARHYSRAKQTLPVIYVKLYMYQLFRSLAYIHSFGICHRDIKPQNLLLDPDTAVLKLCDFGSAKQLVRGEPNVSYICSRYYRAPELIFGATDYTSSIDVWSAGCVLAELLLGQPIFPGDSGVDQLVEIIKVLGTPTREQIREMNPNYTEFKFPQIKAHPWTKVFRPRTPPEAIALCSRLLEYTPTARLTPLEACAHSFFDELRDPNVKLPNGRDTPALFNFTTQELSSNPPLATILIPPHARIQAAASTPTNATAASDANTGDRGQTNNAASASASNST
T1 sequence (Q96SW2 whole entry partner): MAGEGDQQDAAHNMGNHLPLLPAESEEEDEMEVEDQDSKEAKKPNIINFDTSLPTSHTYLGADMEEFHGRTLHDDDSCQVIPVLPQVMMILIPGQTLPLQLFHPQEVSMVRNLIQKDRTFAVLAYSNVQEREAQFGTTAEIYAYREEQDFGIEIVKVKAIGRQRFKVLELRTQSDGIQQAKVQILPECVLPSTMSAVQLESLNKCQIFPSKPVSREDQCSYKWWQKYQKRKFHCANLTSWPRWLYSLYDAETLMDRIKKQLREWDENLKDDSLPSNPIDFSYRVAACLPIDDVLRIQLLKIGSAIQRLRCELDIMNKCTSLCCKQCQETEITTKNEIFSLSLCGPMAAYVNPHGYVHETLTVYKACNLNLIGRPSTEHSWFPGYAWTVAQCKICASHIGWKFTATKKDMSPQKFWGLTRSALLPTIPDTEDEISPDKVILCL
Procedure: For kinetic degradation assays, GSK3β-HiBiT KI HEK293 cells were reverse transfected into white bottom opaque 96-well assay plates. Briefly, GSK3β-HiBiT KI HEK293 cell suspension at a density of 2 × 10^6 per mL was prepared in standard culturing media. 10 mL of cell suspension mixed with transfection mix (1 mL of OptiMEM (Gibco) containing 3:1 ratio of FuGENE HD (Promega) and LgBit (Promega)). Then, cells were seeded into 96-well assay plate as a 100 µL cell suspension per well. After 24 h of transfection, the cell media was removed and 90 µL of CO2-independent medium supplemented with 10% FBS (Gibco) and 1:100 dilution of Endurazine (Promega) and incubated for 2.5 h at 37 °C. Test compounds were added onto cells and luminescence signals were monitored and recorded on GloMAX discover plate reader (Promega) in kinetic mode every 5 min. Data were normalised to DMSO conditions and plotted over time and degradation rates were calculated via Michaelis–Menten non-linear fitting analysis using GraphPad Prism (v10.1.2).

[2] = Plasma protein binding, equilibrium dialysis, rat; type: in vitro ADME; settings: male, Han Wistar, 5 h dialysis, read-out: Plasma Protein Binding (Fu) Rat
Procedure: (§1) A 96-well equilibrium dialysis apparatus was used to determine the free fraction in plasma for each compound (HT Dialysis LLC, Gales Ferry, CT). Membranes (12–14 kDA cut-off) were conditioned in deionised water for 60 min, followed by conditioning in 80:20 deionised water: ethanol for 20 min, and then rinsed in isotonic buffer before use. Female CD1 mouse, Male rat Han Wistar and human plasma was removed from the freezer and allowed to thaw on the day of experiment. Thawed plasma was then centrifuged (Allegra X12-R, Beckman Coulter, USA), spiked with test compound (final concentration 10 μg/mL), and 150 μL aliquots (n = 6 replicate determinations) loaded into the 96-well equilibrium dialysis plate. Dialysis vs isotonic buffer (150 μL) was carried out for 5 h in a temperature-controlled incubator at ca. 37 °C (Barworld Scientific Ltd, UK) using an orbital microplate shaker at 100 revolutions/minute (Barworld Scientific Ltd, UK). At the end of the incubation period, 50 μL aliquots of plasma or buffer were transferred to a 96-well 2.1 mL Waters ^TM plate and the composition in each well balanced with control fluid (50 μL), such that the volume of buffer to plasma is the same. […] All samples were analysed by UPLC-MS/MS. The unbound fraction was determined as the ratio of the peak area in buffer to that in plasma.

[3] = Plasma protein binding, equilibrium dialysis, mouse; type: in vitro ADME; settings: female, CD1, mouse
Procedure: A 96-well equilibrium dialysis apparatus was used to determine the free fraction in plasma for each compound (HT Dialysis LLC, Gales Ferry, CT). Membranes (12–14 kDA cut-off) were conditioned in deionised water for 60 min, followed by conditioning in 80:20 deionised water: ethanol for 20 min, and then rinsed in isotonic buffer before use. Female CD1 mouse, Male rat Han Wistar and human plasma was removed from the freezer and allowed to thaw on the day of experiment. Thawed plasma was then centrifuged (Allegra X12-R, Beckman Coulter, USA), spiked with test compound (final concentration 10 μg/mL), and 150 μL aliquots (n = 6 replicate determinations) loaded into the 96-well equilibrium dialysis plate. Dialysis vs isotonic buffer (150 μL) was carried out for 5 h in a temperature-controlled incubator at ca. 37 °C (Barworld Scientific Ltd, UK) using an orbital microplate shaker at 100 revolutions/minute (Barworld Scientific Ltd, UK). At the end of the incubation period, 50 μL aliquots of plasma or buffer were transferred to a 96-well 2.1 mL Waters ^TM plate and the composition in each well balanced with control fluid (50 μL), such that the volume of buffer to plasma is the same. Sample extraction was performed by the addition of 200 μL of acetonitrile containing an appropriate internal standard. Samples were allowed to mix for 1 min and then centrifuged at 3000 rpm in 96-well blocks for 15 min (Allegra X12-R, Beckman Coulter, USA), after which 150 μL of supernatant was removed to 50 μL of water. All samples were analysed by UPLC-MS/MS. The unbound fraction was determined as the ratio of the peak area in buffer to that in plasma.

[4] = Plasma protein binding, equilibrium dialysis, human; type: in vitro ADME; settings: 5 h dialysis, read-out: Plasma Protein Binding (Fu) Hu
Procedure: as §1

[5] = 10 μg/mL, 5 h dialysis, read-out: Plasma Protein Binding (Fu) Mu

Row | Structure (SMILES) | AUC(0-t) [1] [ng·h/mL] | clearance [1] [mL/min/kg] | Cl_obs [1] | Half_Life [1] [h] | Vss_obs [1] [L/kg] | maximal degradation rate (λmax) (GSK3β-HiBiT; live cell, Michaelis-Menten fit) | fraction unbound at 5 h, 10 μg/mL [2] | fraction unbound at 5 h, 10 μg/mL [3, 5] | fraction unbound at 5 h, 10 μg/mL ([3]; equilibrium dialysis, read-out: unbound fraction in mouse plasma) | fraction unbound at 5 h, 10 μg/mL [4] | degradation of GSK3β in live cells (GSK3β-HiBiT; 10 nM, after 2 h)
1 | O=C1CCC(NC(=O)c2ccc(CN3CCN(Cc4ccc(-c5cn(-c6ccc(-c7cn8nccc(C(=O)Nc9cnccc9N9CCOCC9)c8n7)cc6)nn5)nc4)CC3)cn2)C(=O)N1 (stereo not shown) [compound 22] | 444 | 12 | moderate | 2.8 | 2.8 | – | – | – | – | – | –
2 | Cn1nc(N2CCC(=O)NC2=O)c2ccc(CN3CCN(Cc4ccc(-c5cn(-c6ccc(-c7cn8nccc(C(=O)Nc9cnccc9N9CCOCC9)c8n7)cc6)nn5)nc4)CC3)cc21 [compound 24] | – | – | – | – | – | ~ 1.0 h^−1 | 0.00064 | 0.0052 | 0.005 | 0.0072 | –
3 | Cn1nc(N2CCC(=O)NC2=O)c2ccc(CN3CCN(CCCc4cn(-c5ccc(-c6cn7nccc(C(=O)Nc8cnccc8N8CCOCC8)c7n6)cc5)nn4)CC3)cc21 [compound 26] | 590 | 8 | moderate | 2.7 | 1.9 | – | 0.01 | 0.021 | – | 0.05 | almost complete degradation
